US11813277B2, “Methods and agents for modulating inflammation” (The Regents of the University of California, priority 2018, dated 2023)

Legend:
Arginase = Arginase activity in BMDMs; format: cell-based, mouse; conditions: 200 μM etomoxir, IL-4, 24 hr
Experimental: On Day 6 of differentiation, BMDMs were seeded at 1×10^6 cells/well in 6-well plates. 24 hr later, BMDMs were mock-treated or co-treated with 20 ng/mL IL-4±200 μM etomoxir in DMEM supplemented with 5% FBS, 2 mM L-glutamine, 100 units/mL, 100 μg/mL penicillin/streptomycin, 500 μM of sodium pyruvate and 5% v/v conditioned media containing macrophage colony stimulating factor (M-CSF) for 24 hr. Prior to sample collections, cells were washed with 600 μL of ice-cold PBS twice and scraped into 1.5 mL centrifuge tubes. Cell lysate was prepared according to Arginase Activity Assay Kit (Sigma MAK112) instructions and the 20 μL of lysate was used to measure arginase activity. Arginase activity was adjusted to total cell number.

[1] = tested on: phosphate (Pi) transporter; test: Phosphate transporter assay (mitochondrial swelling); format: biochemical, rat; conditions: 250 μM etomoxir, 100 μM NEM, 10 μM mersalyl
Experimental: Phosphate transport was measured by monitoring swelling of de-energized mitochondria in isotonic potassium phosphate medium based upon principles described by Coty, W. A. and Pedersen, P. L. (1975) Phosphate transport in rat liver mitochondria. Kinetics, inhibitor sensitivity, energy requirements, and labeled components. Mol Cell Biochem. 9, 109-24. As the phosphate carrier acts as electroneutral symporter with protons, the process is self-restricting due to generation of an opposing pH gradient. […] In the presence of nigericin, the proton fluxes cycle resulting in electro- and pH-neutral transport of potassium phosphate down its concentration gradient into the mitochondrial matrix, resulting in osmotic accumulation of water. Under these conditions, transport is limited by the activity of phosphate carrier, and can be recorded as mitochondrial swelling (a decrease in light scattering).
The measurements were performed in an LS-50B spectrofluorometer (Perkin-Elmer) at 540 nm. Assay medium contained 125 mM potassium phosphate, pH 7.2, 0.5 mM EGTA, and 2 μM rotenone. Mouse liver mitochondria (0.5 mg/ml) were treated with 250 μM etomoxir, 100 μM N-ethylmaleimide (NEM) (Klingenberg, M., Durand, R., and Guerin, B. (1974) Analysis of the reactivity of SH-reagents with the mitochondrial phosphate carrier. Eur J Biochem, 42, 135-150) or 10 μM mersalyl (Paradies, G. and Ruggiero, F. M. (1991) Effect of aging on the activity of the phosphate carrier and on the lipid composition in rat liver mitochondria. Arch Biochem Biophys. 284, 332-337) and the reaction was started with 5 μM nigericin. Typical traces from 3 experiments are shown. To establish the maximally swollen state of mitochondria, 80 μg/ml alamethicin was used.

[2] = tested on: adenine nucleotide translocase (ANT); test: ATP hydrolysis in isolated mitochondria, intact or alamethicin-permeabilized; format: biochemical, rat
Source text: ATP hydrolysis in isolated mitochondria (McQuaker, S. J., Quinlan, C. L., Caldwell, S. T., Brand, M. D., and Hartley, R. C. (2013). A prototypical small molecule modulator uncouples mitochondria in response to endogenous hydrogen peroxide production. Chembiochem. 14, 993-1000; Divakaruni, A. S., Andreyev, A. Y., Rogers, G. W., and Murphy, A. N. (2017a) In situ measurements of mitochondrial matrix enzyme activities using plasma and mitochondrial membrane permeabilization agents. Anal. Biochem. 17, 30385-8) was performed in MAS buffer, and stimulated by respiratory chain inhibition (1 μM rotenone and 2 μM antimycin A) followed by addition of excess ATP (25 mM) and uncoupler (1 μM FCCP). Hydrolysis was inhibited by injection of either oligomycin (3 ng/mg mitochondrial protein) or carboxyatractylo side (7.5 ng/mg mitochondrial protein). Rates of extracellular acidification (ECAR, in mpH/min) were converted to proton production rates (PPR, in pmol H+/min) by determining the buffer capacity with sequential injections of HCl and H2SO4 (Mookerjee, S. A., Goncalves, R. L., Gerencser, A. A., Nicholls, D. G., and Brand, M. D. (2015). The contributions of respiration and glycolysis to extracellular acid production. Biochim et Biophys Acta. 1847, 171-81). 10 μg/mL alamethicin was used to permeabilize the mitochondrial inner membrane (1 μg/mg mitochondrial protein).

BMDMs = test: Mass spectrometry-based metabolomics of BMDMs; format: cell-based, mouse; conditions: IL-4
Experimental: Cell. 173, 470-484. Briefly, cells were seeded in 6-well dishes at 1×10^6 cells/well. Cells were treated with IL-4 with and without etomoxir co-treatments (3 μM or 200 μM) similarly to other experiments. To extract intracellular metabolites, cells were briefly rinsed with cold 150 mM ammonium acetate (pH 7.3), followed by addition of 1 ml cold 80% MeOH on dry ice. Cells were detached with cell scrapers and suspensions transferred into centrifuge tubes. After rigorous mixing, the suspension was pelleted by centrifugation (1.3×104 rpm, 4° C.). The supernatant was transferred into a glass vial, metabolites were dried down under vacuum, and resuspended in 50% (v/v) acetonitrile including heavy isotope-labeled amino acids as internal standards (Chen, W. W., Freinkman, E. and Sabatini, D. M. (2017) Rapid immunopurification of mitochondria for metabolite profiling and absolute quantification of matrix metabolites. Nat. Protoc. 12, 2215-2231).
For the mass spectrometry-based analysis of the sample, 5 μL were injected onto a Luna NH2 (150 mm×2 mm, Phenomenex) column. The samples were analyzed with an UltiMate 3000RSLC (Thermo Scientific) coupled to a Q Exactive mass spectrometer (Thermo Scientific). The Q Exactive was run with polarity switching (+3.50 kV/−3.50 kV) in full scan mode with an m/z range of 65-975. Separation was achieved using A) 5 mM NH4AcO (pH 9.9) and B) ACN. The gradient started with 15% A) going to 90% A) over 18 min, followed by an isocratic step for 9 min and reversal to the initial 15% A) for 7 min. Metabolites were quantified with El Maven (v0.2.4) using accurate mass measurements (≤3 ppm) and retention times of pure standards. Data analysis was performed using the statistical language R. For the PCA and clustering analyses, only metabolites with an ANOVA p-value≤0.05 were incorporated. For visualization using heatmaps, metabolites were scaled across samples but not across metabolites. To assess what metabolites contributed the most to a given metabolic phenotype, we calculated the correlation between the loading vector for a given metabolite and the score vector of a given sample for PCs 1 and 2.

CCOC(=O)[C@@]1(CCCCCCOc2ccc(Cl)cc2)CO1 [etomoxir]
Arginase activity (Arginase): unaffected
Pi transporter activity (rate of swelling) [1]: does not inhibit
Pi transporter activity (rate of swelling) ([1]; listed as Etomoxir): does not affect the rate of swelling
ATP hydrolysis ([2]; alamethicin-permeabilized mitochondria): no effect
ATP hydrolysis ([2]; intact isolated mitochondria, etomoxir 100 μM, CAT 7.5 ng/mg, oligomycin 3 ng/mg): inhibited ATP hydrolysis
intracellular pantothenate levels (BMDMs; 3 μM etomoxir): no change
metabolite profile (PCA) (BMDMs; 3 μM etomoxir): no appreciable change
intracellular pantothenate levels, increase (BMDMs; 200 μM etomoxir): three-fold
metabolite composition (PCA) (BMDMs; 200 μM etomoxir): profound change
